From patent US11072590B2, “1,4,7,10-tetrazacyclododecane based agents to target bacteria and its use” (HELMHOLTZ-ZENTRUM FUER INFEKTIONSFORSCHUNG GMBH, priority 2014, dated 2021)
Values after ≈ are worked out from the molar mass of the structure shown. Where two headings read alike, the source gives them in different places.

Experiments:
Type in all cases: cell-based
[1] = system: Acinetobacter baumannii (DSM 30007, ATCC 19606); experiment: Broth microdilution MIC, Acinetobacter baumannii
Procedure: (§1) All liquids and media were sterilized by autoclaving (121° C., 15 min) before use. All aqueous solutions and media were prepared using distilled, deionized, and filtered water (Millipore Milli-Q Advantage A10 Water Purification System) Mueller-Hinton No. 2 broth (MHII broth; cation adjusted) was purchased from Sigma-Aldrich (St. Louis, Mo.). Iron-deficient (−Fe) MHII broth was prepared by adding 0.8 mL of a 1 mg/mL sterile aq. solution of 2,2′-bipyridine to 49.2 mL of MHII broth. Iron-rich (+Fe) MHII broth was prepared by adding 0.8 mL of a 1 mg/mL sterile aq. solution of FeCl3 to 49.2 mL of MH II broth.
(§2) Antibacterial activity of the compounds was determined by measuring their minimum inhibitory concentrations (MIC90's) using the broth microdilution method according to the Clinical and Laboratory Standards Institute (CLSI, formerly the NCCLS) guidelines. Each well of a 96-well microtiter plate was filled with 40 μL of sterile broth media (−Fe or +Fe). Each test compound was dissolved in DMSO making a 10 mM solution, and then diluted with sterile broth media (−Fe or +Fe) to 75 or 150 μM. Exactly 80 μL of the compound solution was added to the first well of the microtiter plate and 1.5-fold serial dilutions were made down each row of the plate. Exactly 40 μL of bacterial inoculum (Acinetobacter baumannii, Pseudomonas aeruginosa, Staphylococcus aureus Starting Optical density (OD)=0.0005) was then added to each well giving a total volume of 80 μL/well. The plate was incubated at 37° C. for 48 h and then each well was examined for bacterial growth. The MIC90 was recorded as the lowest compound concentration (μM) required to inhibit 90% of bacterial growth as judged by turbidity of the culture media relative to a row of wells filled with a DMSO standard.
(§3) Compounds HHY-10 and HHY-11 were subjected to further assays to determine their minimum inhibitory concentrations (MIC) in both iron-rich and iron-deficient media (Table 1). […] Compounds 10 and 11 were also tested against Klebsiella pneumoniae (DSM 11678, ATCC 33495), which is able to synthesize and utilize enterobactin and its degraded product for iron uptake under iron-limited conditions. […] It appears that P. aeruginosa, A. baumannii, Straph aureus and K. pneumoniae, either induced or inherently, have different abilities to use triscatecholate as a siderophore for iron uptake. The inhibitory activities of vancomycin siderophore-DOTA conjugate HHY-30 have been analyzed under similar conditions.

[2] = system: Pseudomonas aeruginosa PA7 (DSM 24068); experiment: Broth microdilution MIC, Pseudomonas aeruginosa
Procedure: as §1, §2, §3

[3] = system: Klebsiella pneumoniae (DSM 11678, ATCC 33495); experiment: Broth microdilution MIC, Klebsiella pneumoniae
Procedure: as §1, §2, §3

[4] = system: Staphylococcus aureus MRSA (DSM 11822, ICB 25701); experiment: Broth microdilution MIC, Staphylococcus aureus
Procedure: as §1, §2, §3

P. aeruginosa PA01/wt = experiment: Broth microdilution MIC, P. aeruginosa PA01/wt
Procedure: as §1, §2

P. aeruginosa PA07/wt = experiment: Broth microdilution MIC, P. aeruginosa PA07/wt
Procedure: as §1, §2

P. aeruginosa PA14/wt = experiment: Broth microdilution MIC, P. aeruginosa PA14/wt
Procedure: as §1, §2

P. aeruginosa PA01/pirA = experiment: Broth microdilution MIC, P. aeruginosa PA01/pirA mutant; conditions: mutant with defect in ferric enterobactin receptor (pirA)
Procedure: as §1, §2

P. aeruginosa PAO01/fptA = experiment: Broth microdilution MIC, P. aeruginosa PAO01/fptA mutant; conditions: mutation in pyochelin outer membrane receptor precursor
Procedure: as §1, §2

Acinetobacter baumannii = experiment: Uptake in bacteria by confocal fluorescent microscopy; conditions: 20 μM probe, 1 hour at 37° C., PBS
Procedure: The uptake of coumarin 343, HHY-10 and HHY-11 was investigated in gram-negative bacteria Pseudomonas aeruginosa PA7 (DSM 24068), Acinetobacter baumannii (DSM 30007, ATCC 19606) and gram-positive bacteria Staphylococcus aureus MRSA (DSM 11822, ICB 25701). Gram-negative bacteria were cultured overnight in Mueller Hinton Broth (M-H Broth)+1% glucose (10 g/L) or Gram-positive bacteria were cultured overnight in trypticase soy yeast extract medium (TSY-Med) at 37° C. under 5% CO2 in an incubator shaker set at 180 rpm. Bacteria (from the overnight culture) were re-suspended in 10 mL of PBS buffer, to an optical density of 0.1 at 600 nm. The bacterial culture solution was transferred into 48 well plates, with each well containing 200 μL of bacteria, and 0.4 μL of either coumarin 343, HHY-10 and HHY-11 stock solutions (10 mM in PBS) were added, generating a 20 μM probe concentration. The bacteria were incubated with the probes for 1 hour at 37° C. under 5% CO2 in an incubator without shaking. The bacteria were harvested by centrifuging the bacterial solutions. The resulting pellets were washed 3 times with 200 μL PBS by resuspending the pellets in PBS and centrifuging. The washed bacterial pellets were transferred into a slice, then imaged using confocal fluorescent microscopy. The intensity of the green signal from coumarin presents the relevant amount of these probes taken by the bacteria.

[5] = system: Pseudomonas aeruginosa PA7, Acinetobacter baumannii, Staphylococcus aureus MRSA; experiment: Bacterial inhibition assays, across the bacteria tested
Procedure: as §1
Antibacterial activity of the compounds was determined by measuring their minimum inhibitory concentrations (MIC90's) using the broth microdilution method according to the Clinical and Laboratory Standards Institute (CLSI, formerly the NCCLS) guidelines. Each well of a 96-well microtiter plate was filled with 40 μL of sterile broth media (−Fe or +Fe). Each test compound was dissolved in DMSO making a 10 mM solution, and then diluted with sterile broth media (−Fe or +Fe) to 75 or 150 μM. […]
Compounds HHY-10 and HHY-11 were subjected to further assays to determine their minimum inhibitory concentrations (MIC) in both iron-rich and iron-deficient media (Table 1). […] The inhibitory activities of vancomycin siderophore-DOTA conjugate HHY-30 have been analyzed under similar conditions.

[6] = Fe− (iron-deficient MHII broth)

Compound O=C(O)c1cc2cc3c4c(c2oc1=O)CCCN4CCC3 [Coumarin 343, reference compound] has an MIC ([1]; Fe+ (iron-rich MHII broth)) greater than 100 µM, an MIC [1, 6] greater than 100 µM and an MIC ([2]; Fe+ (iron-rich MHII broth)) greater than 100 µM. For the same compound, the MIC [2, 6] was greater than 100 µM, the MIC ([3]; Fe+ (iron-rich MHII broth)) was greater than 100 µM and the MIC [3, 6] was greater than 100 µM. It also gave an MIC ([4]; Fe+ (iron-rich MHII broth)) greater than 100 µM, an MIC [4, 6] greater than 100 µM and an MIC (P. aeruginosa PA01/wt; Fe+ (iron-rich MHII broth)) greater than 100 µM. The MIC (P. aeruginosa PA01/wt; [6]) was greater than 100 µM, the MIC (P. aeruginosa PA07/wt; Fe+ (iron-rich MHII broth)) was greater than 100 µM and the MIC (P. aeruginosa PA07/wt; [6]) was greater than 100 µM. For the same compound, the MIC (P. aeruginosa PA14/wt; Fe+ (iron-rich MHII broth)) was greater than 100 µM, the MIC (P. aeruginosa PA14/wt; [6]) was greater than 100 µM and the MIC (P. aeruginosa PA01/pirA; Fe+ (iron-rich MHII broth)) was greater than 100 µM. For the same compound, the MIC (P. aeruginosa PA01/pirA; [6]) was greater than 100 µM, the MIC (P. aeruginosa PAO01/fptA; Fe+ (iron-rich MHII broth)) was greater than 100 µM and the MIC (P. aeruginosa PAO01/fptA; [6]) was greater than 100 µM. For the same compound, the “uptake: fluorescence (green signal from coumarin) in bacteria” value (Acinetobacter baumannii) was “would not lead to obvious fluorescence” and the “MIC (generally inactive)” value ([5]; across bacteria) was greater than 100 µM.
In the case of CC(=O)Oc1cccc(C(=O)NCCNC(=O)CN2CCN(CC(=O)NCCCOCCOCCOCCCNC(=O)c3cc4cc5c6c(c4oc3=O)CCCN6CCC5)CCN(CC(=O)NCCNC(=O)c3cccc(OC(C)=O)c3OC(C)=O)CCN(CC(=O)NCCNC(=O)c3cccc(OC(C)=O)c3OC(C)=O)CC2)c1OC(C)=O [HHY-10], the MIC ([1]; Acinetobacter baumannii, Fe+ (iron-rich MHII broth)) is reported as greater than 100 µM, the MIC ([1]; Acinetobacter baumannii, Fe− (iron-deficient MHII broth)) is reported as 15 µM (≈ 24.9 µg/mL) and the MIC ([2]; Pseudomonas aeruginosa, DSM24068, Fe+ (iron-rich MHII broth)) is reported as greater than 100 µM. For the same compound, the MIC ([2]; Pseudomonas aeruginosa, DSM24068, Fe− (iron-deficient MHII broth)) was 33 µM (≈ 54.8 µg/mL), the MIC [3, 6] was greater than 100 µM and the MIC ([3]; Klebsiella pneumoniae) was greater than 100 µM. It also gave an MIC ([3]; Klebsiella pneumoniae, read-out: MIC (inactive against K. pneumoniae)) greater than 100 µM, an MIC ([4]; Staphylococcus aureus, Fe+ (iron-rich MHII broth)) greater than 100 µM and an MIC ([4]; Staphylococcus aureus, Fe− (iron-deficient MHII broth)) of 28 µM (≈ 46.5 µg/mL). The MIC (P. aeruginosa PA01/wt; Pseudomonas aeruginosa, PA01/WT, Fe+ (iron-rich MHII broth)) was greater than 100 µM, the MIC (P. aeruginosa PA01/wt; Pseudomonas aeruginosa, PA01/WT, Fe− (iron-deficient MHII broth)) was 40 µM (≈ 66.4 µg/mL) and the MIC (P. aeruginosa PA07/wt; Pseudomonas aeruginosa, PA07/WT, Fe+ (iron-rich MHII broth)) was greater than 100 µM. The MIC (P. aeruginosa PA07/wt; Pseudomonas aeruginosa, PA07/WT, Fe− (iron-deficient MHII broth)) was 40 µM (≈ 66.4 µg/mL), the MIC (P. aeruginosa PA14/wt; Pseudomonas aeruginosa, PA14, Fe+ (iron-rich MHII broth)) was greater than 100 µM and the MIC (P. aeruginosa PA14/wt; Pseudomonas aeruginosa, PA14, Fe− (iron-deficient MHII broth)) was 40 µM (≈ 66.4 µg/mL). The MIC (P. aeruginosa PA01/pirA; Pseudomonas aeruginosa, PA01/PIRA, Fe+ (iron-rich MHII broth)) was greater than 100 µM, the MIC (P. aeruginosa PA01/pirA; Pseudomonas aeruginosa, PA01/PIRA, Fe− (iron-deficient MHII broth)) was 40 µM (≈ 66.4 µg/mL) and the MIC (P. aeruginosa PAO01/fptA; Pseudomonas aeruginosa, PAO01/FPTA, Fe+ (iron-rich MHII broth)) was greater than 100 µM. For the same compound, the MIC (P. aeruginosa PAO01/fptA; Pseudomonas aeruginosa, PAO01/FPTA, Fe− (iron-deficient MHII broth)) was 40 µM (≈ 66.4 µg/mL), the “uptake: fluorescence (green signal from coumarin) in bacteria” value (Acinetobacter baumannii) was “obvious fluorescent signals” and the antibacterial activity ([5]; iron-deficient medium) was “media antibacterial activity”.
